ChEMBL document CHEMBL1145334, “Structural determinants of Torpedo californica acetylcholinesterase inhibition by the novel and orally active carbamate based anti-alzheimer drug ganstigmine (CHF-2819)” (J Med Chem, 2006)
pIC50: −log10 of the molar value. Structures can show the parent of a compound that is named as a salt.

Each molecule was assayed against T1, Acetylcholinesterase (Mus musculus) (UniProt P21836). Details: CD1, Brain, 1.5 mg/kg.
T1 sequence (whole entry): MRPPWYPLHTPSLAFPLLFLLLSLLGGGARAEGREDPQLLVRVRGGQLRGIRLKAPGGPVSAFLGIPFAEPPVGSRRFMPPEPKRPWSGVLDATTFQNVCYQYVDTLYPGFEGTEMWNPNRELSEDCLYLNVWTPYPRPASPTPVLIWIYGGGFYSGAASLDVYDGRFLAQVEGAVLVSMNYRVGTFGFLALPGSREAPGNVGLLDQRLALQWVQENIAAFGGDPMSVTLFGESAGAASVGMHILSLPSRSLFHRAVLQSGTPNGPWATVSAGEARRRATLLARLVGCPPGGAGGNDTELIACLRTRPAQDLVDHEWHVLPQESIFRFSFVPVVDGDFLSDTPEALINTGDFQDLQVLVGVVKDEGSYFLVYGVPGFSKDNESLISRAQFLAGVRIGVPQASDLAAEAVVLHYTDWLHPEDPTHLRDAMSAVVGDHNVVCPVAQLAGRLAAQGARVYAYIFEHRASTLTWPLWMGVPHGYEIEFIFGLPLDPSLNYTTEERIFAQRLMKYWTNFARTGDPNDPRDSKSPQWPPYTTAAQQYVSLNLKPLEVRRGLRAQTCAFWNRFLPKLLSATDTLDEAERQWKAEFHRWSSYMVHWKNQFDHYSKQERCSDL
Description: Inhibition of AChE in CD1 mouse brain at 1.5 mg/kg, po after 4 hrs
`CCN(C)C(=O)Oc1cccc([C@H](C)N(C)C)c1` [RIVASTIGMINE TARTRATE] was tested, and the inhibition was 73%.

Each molecule was assayed against Acetylcholinesterase (Torpedo californica, UniProt P04058) (assay: Inhibition of Torpedo californica AChE). Details: not given.
Sequence of Acetylcholinesterase (P04058 whole entry): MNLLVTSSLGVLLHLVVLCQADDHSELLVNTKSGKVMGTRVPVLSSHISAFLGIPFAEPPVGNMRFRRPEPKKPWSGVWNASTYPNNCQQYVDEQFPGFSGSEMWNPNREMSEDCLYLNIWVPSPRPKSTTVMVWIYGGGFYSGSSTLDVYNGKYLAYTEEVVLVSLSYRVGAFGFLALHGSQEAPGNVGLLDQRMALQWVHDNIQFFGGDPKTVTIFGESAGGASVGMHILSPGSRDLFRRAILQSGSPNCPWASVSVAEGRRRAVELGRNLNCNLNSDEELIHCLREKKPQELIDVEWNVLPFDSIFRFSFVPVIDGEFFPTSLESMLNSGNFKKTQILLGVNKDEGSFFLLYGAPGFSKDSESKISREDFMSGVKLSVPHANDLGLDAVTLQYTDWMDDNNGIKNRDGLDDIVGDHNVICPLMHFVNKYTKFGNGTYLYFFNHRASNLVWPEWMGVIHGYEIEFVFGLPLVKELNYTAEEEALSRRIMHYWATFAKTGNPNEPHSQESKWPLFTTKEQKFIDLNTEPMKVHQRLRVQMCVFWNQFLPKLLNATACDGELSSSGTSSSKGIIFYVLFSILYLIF
Parameters: species or system Tetronarce californica
Molecule `Cc1cc(C)cc(NC(=O)Oc2ccc3c(c2)[C@]2(C)CC[N+](C)([O-])[C@@H]2N3C)c1` (stereo partly drawn) has a pIC50 of 5.07.
In the case of `Cc1ccc(NC(=O)Oc2ccc3c(c2)[C@]2(C)CC[N+](C)([O-])[C@@H]2N3C)cc1` (stereo partly drawn), the pIC50 was 5.12.
`CCCc1ccccc1NC(=O)Oc1ccc2c(c1)[C@]1(C)CC[N+](C)([O-])[C@@H]1N2C` (stereo partly drawn) gave a pIC50 of 5.07.
Work on `CCN(C)C(=O)Oc1cccc([C@H](C)N(C)C)c1` [RIVASTIGMINE TARTRATE] yielded a pIC50 of 3.73.
Molecule `Cc1cccc(NC(=O)Oc2ccc3c(c2)[C@]2(C)CC[N+](C)([O-])[C@@H]2N3C)c1` (stereo partly drawn) has a pIC50 of 5.29.
For `CC(C)c1ccccc1NC(=O)Oc1ccc2c(c1)[C@]1(C)CC[N+](C)([O-])[C@@H]1N2C` (stereo partly drawn), the pIC50 was 5.08.
`CCc1cccc(NC(=O)Oc2ccc3c(c2)[C@]2(C)CC[N+](C)([O-])[C@@H]2N3C)c1` (stereo partly drawn) gave a pIC50 of 5.01.
`Cc1cccc(C)c1NC(=O)Oc1ccc2c(c1)[C@]1(C)CC[N+](C)([O-])[C@@H]1N2C` (stereo partly drawn) was tested, and the pIC50 was 3.73.
For `CN1c2ccc(OC(=O)Nc3ccccc3)cc2[C@]2(C)CC[N+](C)([O-])[C@H]12` (stereo partly drawn), the pIC50 was 5.32.
With `Cc1ccccc1NC(=O)Oc1ccc2c(c1)[C@]1(C)CC[N+](C)([O-])[C@@H]1N2C` (stereo partly drawn) the pIC50 was 5.39.
`CCc1ccccc1NC(=O)Oc1ccc2c(c1)[C@]1(C)CC[N+](C)([O-])[C@@H]1N2C` (stereo partly drawn) was tested, and the pIC50 was 5.29.
In the case of `CNC(=O)Oc1ccc2c(c1)[C@]1(C)CC[N+](C)([O-])[C@@H]1N2C` (stereo partly drawn) [GENESERINE], the pIC50 was 5.76.
